{
  "source": "ChEMBL document CHEMBL1142608",
  "about": "“A ceramide and cerebroside from the starfish asterias amurensis Lütken and their plant-growth promotion activities” (J Nat Prod, 2006)",
  "key": {"[1]": {"tested_on": "Brassica rapa subsp. oleifera", "experiment": "Growth-promoting activity in Brassica campestris assessed as whole body growth at 25 degC after 1 week by filter paper assay under 12 hrs/12 hrs light-dark cycle condition", "assay_type": "functional, organism-based"}, "[2]": {"tested_on": "Brassica rapa subsp. oleifera", "experiment": "Growth-promoting activity in Brassica campestris assessed as root growth at 25 degC after 1 week by filter paper assay under 12 hrs/12 hrs light-dark cycle condition", "assay_type": "functional, organism-based"}},
  "note": "Active and inactive are the calls of the source. The calls are words filed in the database; no cut-off is given here.",
  "data": [
    {"molecule": "CC(C)CC(=O)C[C@@](C)(O)[C@H]1CC[C@H]2[C@@H]3C[C@H](O[C@@H]4O[C@H](C)[C@@H](O)[C@H](O[C@@H]5OC[C@@H](O[C@@H]6O[C@H](CO)[C@H](O)[C@H](O)[C@H]6O[C@@H]6O[C@H](C)[C@@H](O)[C@H](O)[C@H]6O)[C@H](O)[C@H]5O[C@H]5O[C@@H](C)[C@H](O)[C@@H](O)[C@@H]5O)[C@H]4O)[C@H]4C[C@@H](OS(=O)(=O)O)CC[C@]4(C)C3=CC[C@@]21C", "values": [
      {"measurement": "Activity", "setting": "[1]", "value": "inactive"}
    ]},
    {"molecule": "CCCCCCCC/C=C\\CCCCCC/C=C/[C@@H](O)[C@H](CO[C@@H]1O[C@H](CO)[C@@H](O)[C@H](O)[C@H]1O)NC(=O)[C@H](O)CCCCCCCCCCCCCC", "values": [
      {"measurement": "Activity", "setting": "[1]", "value": "Active"}
    ]},
    {"molecule": "CC(C)CC(=O)C[C@@](C)(O)[C@H]1CC[C@H]2[C@@H]3C[C@H](O[C@@H]4O[C@H](C)C(=O)[C@H](O[C@@H]5O[C@H](C)[C@@H](O[C@@H]6O[C@H](C)[C@H](O)[C@H](O)[C@H]6O[C@@H]6O[C@H](C)[C@H](O)[C@H](O)[C@H]6O)[C@H](O)[C@H]5O[C@@H]5O[C@H](C)[C@@H](O)[C@H](O)[C@H]5O)[C@H]4O)[C@H]4C[C@@H](OS(=O)(=O)O)CC[C@]4(C)C3=CC[C@@]21C", "values": [
      {"measurement": "Activity", "setting": "[1]", "value": "inactive"}
    ]},
    {"molecule": "CCCCCCCC/C=C\\CCCCCCC/C=C/[C@@H](O)[C@H](CO[C@@H]1O[C@H](CO)[C@@H](O)[C@H](O)[C@H]1O)NC(=O)[C@H](O)CCCCCCCCCCCC", "values": [
      {"measurement": "Activity", "setting": "[1]", "value": "Active"}
    ]},
    {"molecule": "CCCCCCCC/C=C\\CCCCCCC/C=C/[C@@H](O)[C@H](CO[C@@H]1O[C@H](CO)[C@@H](O)[C@H](O)[C@H]1O)NC(=O)[C@H](O)CCCCCCCCCCCCC", "values": [
      {"measurement": "Activity", "setting": "[1]", "value": "Active"}
    ]},
    {"molecule": "CCCCCCCC/C=C\\CCCCCCCC[C@@H](O)[C@@H](O)[C@H](CO)NC(=O)[C@H](O)CCCCCCCCCCCCCC", "values": [
      {"measurement": "Activity", "setting": "[2]", "value": "Active"}
    ]}
  ]
}
